Settings: for mass density: Fluid (supercritical or subcritical phases), Vibrating tube method

C=C(C)C [2-methylpropene]
Settings	Critical density [kg/m3]	mass density [kg/m3]	vapor or sublimation pressure [kPa]
388.24 K, 14986 kPa	–	509.22	–
388.24 K, 19997 kPa	–	523.66	–
388.24 K, 25009 kPa	–	535.55	–
388.24 K, 29994 kPa	–	545.71	–
388.24 K, 35003 kPa	–	554.67	–
393.24 K, 3122 kPa	–	430.77	–
393.24 K, 4982 kPa	–	451.26	–
393.24 K, 9992 kPa	–	482.81	–
393.24 K, 14983 kPa	–	502.79	–
393.24 K, 20002 kPa	–	518.03	–
393.24 K, 25003 kPa	–	530.42	–
393.24 K, 29986 kPa	–	540.94	–
393.24 K, 34999 kPa	–	550.22	–
393.36 K, Liquid	–	–	2656.5
398.24 K, 3358 kPa	–	417.5	–
398.24 K, 4991 kPa	–	439.31	–
398.24 K, 10000 kPa	–	474.88	–
398.24 K, 15001 kPa	–	496.33	–
398.24 K, 19996 kPa	–	512.31	–
398.24 K, 24996 kPa	–	525.25	–
398.24 K, 30012 kPa	–	536.21	–
398.24 K, 35008 kPa	–	545.78	–
399.86 K, Liquid	–	–	2967.1
403.24 K, 3596 kPa	–	402.69	–
403.24 K, 4988 kPa	–	426.04	–
403.24 K, 14999 kPa	–	489.7	–
403.24 K, 19992 kPa	–	506.53	–
403.24 K, 24997 kPa	–	520.05	–
403.24 K, 30004 kPa	–	531.43	–
403.24 K, 34985 kPa	–	541.26	–
403.25 K, 9993 kPa	–	466.62	–
408.24 K, 3850 kPa	–	386.28	–
408.24 K, 4991 kPa	–	411.13	–
408.24 K, 14992 kPa	–	482.94	–
408.24 K, 19999 kPa	–	500.74	–
408.24 K, 24999 kPa	–	514.84	–
408.24 K, 30000 kPa	–	526.63	–
408.25 K, 9982 kPa	–	458.05	–
408.25 K, 34995 kPa	–	536.8	–
412.88 K, Liquid	–	–	3665.8
413.24 K, 4118 kPa	–	367.6	–
413.24 K, 30005 kPa	–	521.83	–
413.24 K, 35003 kPa	–	532.34	–
413.25 K, 4983 kPa	–	393.59	–
413.25 K, 9996 kPa	–	449.33	–
413.25 K, 14993 kPa	–	476.09	–
413.25 K, 19996 kPa	–	494.87	–
413.25 K, 24999 kPa	–	509.59	–
418.24 K, 4397 kPa	–	346.27	–
418.24 K, 4989 kPa	–	372.46	–
418.24 K, 14988 kPa	–	469.1	–
418.24 K, 19991 kPa	–	488.93	–
418.24 K, 24993 kPa	–	504.3	–
418.25 K, 9999 kPa	–	440.27	–
418.25 K, 30007 kPa	–	517.01	–
418.25 K, 34986 kPa	–	527.81	–
423.24 K, 5018 kPa	–	345.72	–
423.24 K, 19992 kPa	–	482.96	–
423.24 K, 30010 kPa	–	512.18	–
423.25 K, 9984 kPa	–	430.4	–
423.25 K, 14989 kPa	–	462	–
423.25 K, 25000 kPa	–	499.02	–
423.25 K, 34992 kPa	–	523.34	–
423.25 K, 39996 kPa	–	533.35	–
428.24 K, 5018 kPa	–	303.01	–
428.24 K, 24987 kPa	–	493.65	–
428.24 K, 34996 kPa	–	518.85	–
428.25 K, 9990 kPa	–	420.58	–
428.25 K, 14983 kPa	–	454.76	–
428.25 K, 19986 kPa	–	476.9	–
428.25 K, 30000 kPa	–	507.31	–
433.24 K, 5019 kPa	–	233.56	–
433.25 K, 9991 kPa	–	410.25	–
433.25 K, 14996 kPa	–	447.46	–
433.25 K, 19984 kPa	–	470.79	–
433.25 K, 24991 kPa	–	488.3	–
433.25 K, 30001 kPa	–	502.44	–
433.25 K, 34994 kPa	–	514.34	–
438.25 K, 5019 kPa	–	183.56	–
438.25 K, 9997 kPa	–	399.54	–
438.25 K, 14998 kPa	–	440.02	–
438.25 K, 19984 kPa	–	464.66	–
438.25 K, 24988 kPa	–	482.93	–
438.25 K, 30000 kPa	–	497.59	–
438.25 K, 34992 kPa	–	509.86	–
443.25 K, 5019 kPa	–	159.03	–
443.25 K, 9994 kPa	–	388.26	–
443.25 K, 14989 kPa	–	432.39	–
443.25 K, 20002 kPa	–	458.54	–
443.25 K, 24984 kPa	–	477.51	–
443.25 K, 29996 kPa	–	492.7	–
443.25 K, 34994 kPa	–	505.36	–
448.25 K, 5018 kPa	–	144.08	–
448.25 K, 9996 kPa	–	376.53	–
448.25 K, 14997 kPa	–	424.77	–
448.25 K, 19999 kPa	–	452.29	–
448.25 K, 24998 kPa	–	472.14	–
448.25 K, 29994 kPa	–	487.82	–
448.25 K, 35009 kPa	–	500.91	–
453.25 K, 5016 kPa	–	133.47	–
453.25 K, 9986 kPa	–	364.19	–
453.25 K, 14989 kPa	–	416.85	–
453.25 K, 19999 kPa	–	446.01	–
453.25 K, 25000 kPa	–	466.69	–
453.25 K, 29993 kPa	–	482.93	–
453.25 K, 35004 kPa	–	496.39	–
458.25 K, 5017 kPa	–	125.47	–
458.25 K, 9993 kPa	–	351.66	–
458.25 K, 14983 kPa	–	408.65	–
458.25 K, 19987 kPa	–	439.63	–
458.25 K, 25004 kPa	–	461.27	–
458.25 K, 29988 kPa	–	478.03	–
458.25 K, 34987 kPa	–	491.88	–
463.25 K, 5016 kPa	–	119.04	–
463.25 K, 9981 kPa	–	338.41	–
463.25 K, 14994 kPa	–	400.72	–
463.25 K, 19983 kPa	–	433.24	–
463.25 K, 25001 kPa	–	455.8	–
463.25 K, 29987 kPa	–	473.13	–
463.25 K, 34998 kPa	–	487.42	–
463.25 K, 39991 kPa	–	499.76	–
468.25 K, 5015 kPa	–	113.61	–
468.25 K, 9993 kPa	–	325.38	–
468.25 K, 14991 kPa	–	392.57	–
468.25 K, 19999 kPa	–	426.94	–
468.25 K, 24992 kPa	–	450.29	–
468.25 K, 29998 kPa	–	468.26	–
468.25 K, 34985 kPa	–	482.91	–
473.25 K, 5018 kPa	–	109.13	–
473.25 K, 9986 kPa	–	311.87	–
473.25 K, 14992 kPa	–	384.37	–
473.25 K, 20001 kPa	–	420.52	–
473.25 K, 24988 kPa	–	444.78	–
473.25 K, 29996 kPa	–	463.37	–
473.25 K, 34999 kPa	–	478.46	–
478.25 K, 5019 kPa	–	105.12	–
478.25 K, 9988 kPa	–	298.62	–
478.25 K, 14996 kPa	–	376.12	–
478.25 K, 19999 kPa	–	414.08	–
478.25 K, 24987 kPa	–	439.29	–
478.25 K, 30005 kPa	–	458.51	–
478.25 K, 34997 kPa	–	474	–
483.25 K, 5019 kPa	–	101.57	–
483.25 K, 9988 kPa	–	285.6	–
483.25 K, 14984 kPa	–	367.69	–
483.25 K, 19990 kPa	–	407.57	–
483.25 K, 24996 kPa	–	433.89	–
483.25 K, 29989 kPa	–	453.63	–
483.25 K, 35003 kPa	–	469.59	–
488.24 K, 4981 kPa	–	97.35	–
488.24 K, 20000 kPa	–	401.24	–
488.25 K, 9987 kPa	–	273.08	–
488.25 K, 14983 kPa	–	359.4	–
488.25 K, 24997 kPa	–	428.38	–
488.25 K, 30002 kPa	–	448.75	–
488.25 K, 35005 kPa	–	465.15	–
493.24 K, 4981 kPa	–	94.56	–
493.24 K, 9988 kPa	–	261.21	–
493.24 K, 14986 kPa	–	351.12	–
493.24 K, 19989 kPa	–	394.84	–
493.24 K, 24992 kPa	–	422.89	–
493.24 K, 30006 kPa	–	443.91	–
493.24 K, 35002 kPa	–	460.71	–
498.24 K, 5019 kPa	–	92.91	–
498.24 K, 19995 kPa	–	387.94	–
498.24 K, 30000 kPa	–	439.07	–
498.25 K, 9984 kPa	–	249.88	–
498.25 K, 14995 kPa	–	342.92	–
498.25 K, 24992 kPa	–	417.4	–
498.25 K, 34999 kPa	–	456.28	–
503.24 K, 4997 kPa	–	90.01	–
503.24 K, 9991 kPa	–	239.72	–
503.24 K, 14990 kPa	–	334.64	–
503.24 K, 19984 kPa	–	381.57	–
503.24 K, 24988 kPa	–	411.94	–
503.24 K, 30005 kPa	–	434.24	–
503.24 K, 34991 kPa	–	451.87	–
503.24 K, 39995 kPa	–	466.57	–
508.24 K, 5016 kPa	–	88.26	–
508.24 K, 9990 kPa	–	230.13	–
508.24 K, 14990 kPa	–	326.56	–
508.24 K, 19994 kPa	–	375.29	–
508.24 K, 24991 kPa	–	406.52	–
508.24 K, 30000 kPa	–	429.41	–
508.24 K, 34996 kPa	–	447.5	–
508.24 K, 39992 kPa	–	462.51	–
513.24 K, 5016 kPa	–	86.21	–
513.24 K, 9990 kPa	–	221.29	–
513.24 K, 14992 kPa	–	318.59	–
513.24 K, 19996 kPa	–	368.96	–
513.24 K, 24989 kPa	–	401.13	–
513.24 K, 30003 kPa	–	424.62	–
513.24 K, 35008 kPa	–	443.17	–
513.24 K, 39996 kPa	–	458.53	–
518.23 K, 5016 kPa	–	84.36	–
518.24 K, 9992 kPa	–	213.29	–
518.24 K, 14986 kPa	–	310.73	–
518.24 K, 19995 kPa	–	362.67	–
518.24 K, 24992 kPa	–	395.78	–
518.24 K, 29993 kPa	–	419.86	–
518.24 K, 34991 kPa	–	438.82	–
518.24 K, 39999 kPa	–	454.51	–
523.23 K, 5019 kPa	–	82.65	–
523.23 K, 9982 kPa	–	205.67	–
523.23 K, 14990 kPa	–	303.2	–
523.23 K, 19986 kPa	–	356.38	–
523.23 K, 24989 kPa	–	390.45	–
523.23 K, 29998 kPa	–	415.17	–
523.23 K, 39987 kPa	–	450.55	–
523.24 K, 34992 kPa	–	434.55	–
Liquid, visual observation in a variable volume cell:FP	233.97	–	–

Liquid
Settings	Critical pressure [kPa]	Critical temperature [K]
–	4009.8	418.09

Source: the NIST ThermoML archive (doi:10.1016/j.fluid.2004.09.013)
